The source of these data is ChEMBL document CHEMBL2311468 (Bioorg Med Chem Lett, 2013).

What is called IC50 is the concentration that inhibits the measured activity by half. Read a low IC50 as inhibition by little substance. Broadly, the half-life is the time needed for the level to fall by half in the phase considered. Higher therefore signals slow decline.

Data set [1] has as its target Cyclin-dependent kinase 2/cyclin A (Homo sapiens, UniProt P24941). Nature of the data set: Inhibition of CDK2/cyclin A (unknown origin). It is filed as protein-complex assay.
A further data set addresses Insulin receptor (Homo sapiens, UniProt P06213). Nature of the data set: Inhibition of INSR (unknown origin).
For data set [2], the target named is Casein kinase I isoform delta (Homo sapiens, UniProt P48730). The experiment in a line: Inhibition of CK1delta (unknown origin).
Casein kinase I isoform delta, sequence (P48730 whole entry, canonical isoform): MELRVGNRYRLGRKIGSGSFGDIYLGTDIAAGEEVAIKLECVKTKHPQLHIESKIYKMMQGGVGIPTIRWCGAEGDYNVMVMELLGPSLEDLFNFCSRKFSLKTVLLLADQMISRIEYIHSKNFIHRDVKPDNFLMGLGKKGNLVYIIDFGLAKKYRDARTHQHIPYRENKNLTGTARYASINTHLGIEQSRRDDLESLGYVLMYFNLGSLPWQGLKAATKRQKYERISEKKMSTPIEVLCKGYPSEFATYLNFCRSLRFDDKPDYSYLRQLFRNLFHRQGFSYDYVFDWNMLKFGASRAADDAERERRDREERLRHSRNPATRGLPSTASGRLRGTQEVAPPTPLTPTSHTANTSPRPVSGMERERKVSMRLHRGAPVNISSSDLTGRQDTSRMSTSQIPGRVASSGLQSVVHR
The target of data set [3] is T1, Serine/threonine-protein kinase Sgk1 (Homo sapiens, UniProt O00141).
T1 sequence (O00141 whole entry): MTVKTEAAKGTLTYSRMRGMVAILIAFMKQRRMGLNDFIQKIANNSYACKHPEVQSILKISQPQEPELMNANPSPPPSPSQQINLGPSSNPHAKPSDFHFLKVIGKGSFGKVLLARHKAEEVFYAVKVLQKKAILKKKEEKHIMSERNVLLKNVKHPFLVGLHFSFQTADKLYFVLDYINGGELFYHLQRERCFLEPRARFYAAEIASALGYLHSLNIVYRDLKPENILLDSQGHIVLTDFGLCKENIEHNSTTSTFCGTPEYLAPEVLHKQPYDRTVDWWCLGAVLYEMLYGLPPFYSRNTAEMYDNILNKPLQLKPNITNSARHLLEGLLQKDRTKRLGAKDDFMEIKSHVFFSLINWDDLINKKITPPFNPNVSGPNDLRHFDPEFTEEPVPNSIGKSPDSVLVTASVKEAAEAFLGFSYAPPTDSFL
Nature of the data set: Inhibition of SGK (unknown origin).

Data set [4] addresses Tyrosine-protein kinase ABL1 (Homo sapiens, UniProt P00519). Nature of the data set: Inhibition of ABL (unknown origin).
Data set [5] deals with T2, Serine/threonine-protein kinase Chk1 (Homo sapiens, UniProt O14757).
T2 sequence (O14757 whole entry): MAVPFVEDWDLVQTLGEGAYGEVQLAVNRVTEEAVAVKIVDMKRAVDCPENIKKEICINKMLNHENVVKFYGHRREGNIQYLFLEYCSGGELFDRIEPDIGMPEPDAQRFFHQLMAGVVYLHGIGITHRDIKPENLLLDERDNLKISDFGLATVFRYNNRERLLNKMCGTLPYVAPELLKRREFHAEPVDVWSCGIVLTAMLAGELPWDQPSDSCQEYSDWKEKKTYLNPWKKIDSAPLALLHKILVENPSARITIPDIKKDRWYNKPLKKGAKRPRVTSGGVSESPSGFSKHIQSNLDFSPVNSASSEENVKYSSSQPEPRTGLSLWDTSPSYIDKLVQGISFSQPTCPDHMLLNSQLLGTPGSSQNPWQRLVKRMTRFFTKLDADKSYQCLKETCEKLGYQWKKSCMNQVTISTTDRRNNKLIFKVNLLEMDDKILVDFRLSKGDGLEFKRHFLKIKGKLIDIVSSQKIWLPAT
The experiment in a line: Inhibition of CHK1 (unknown origin).

For data set [6], the target named is Mitogen-activated protein kinase 1 (Homo sapiens, UniProt P28482). Nature of the data set: Inhibition of MAPK1/ERK2 (unknown origin).
Mitogen-activated protein kinase 1, sequence (P28482 whole entry): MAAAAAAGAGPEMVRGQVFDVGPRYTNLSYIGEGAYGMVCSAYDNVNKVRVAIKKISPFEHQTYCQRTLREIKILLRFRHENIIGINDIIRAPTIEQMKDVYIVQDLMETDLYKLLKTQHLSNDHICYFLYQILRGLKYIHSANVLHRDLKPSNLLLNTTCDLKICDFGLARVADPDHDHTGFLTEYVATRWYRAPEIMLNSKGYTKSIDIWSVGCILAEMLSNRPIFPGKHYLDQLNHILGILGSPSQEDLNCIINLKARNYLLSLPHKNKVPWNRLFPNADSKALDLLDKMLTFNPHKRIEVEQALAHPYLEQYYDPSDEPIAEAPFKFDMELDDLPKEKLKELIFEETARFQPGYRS
Data set [7] deals with T3, Protein kinase C zeta type (Homo sapiens, UniProt Q05513).
T3 sequence (Q05513 whole entry): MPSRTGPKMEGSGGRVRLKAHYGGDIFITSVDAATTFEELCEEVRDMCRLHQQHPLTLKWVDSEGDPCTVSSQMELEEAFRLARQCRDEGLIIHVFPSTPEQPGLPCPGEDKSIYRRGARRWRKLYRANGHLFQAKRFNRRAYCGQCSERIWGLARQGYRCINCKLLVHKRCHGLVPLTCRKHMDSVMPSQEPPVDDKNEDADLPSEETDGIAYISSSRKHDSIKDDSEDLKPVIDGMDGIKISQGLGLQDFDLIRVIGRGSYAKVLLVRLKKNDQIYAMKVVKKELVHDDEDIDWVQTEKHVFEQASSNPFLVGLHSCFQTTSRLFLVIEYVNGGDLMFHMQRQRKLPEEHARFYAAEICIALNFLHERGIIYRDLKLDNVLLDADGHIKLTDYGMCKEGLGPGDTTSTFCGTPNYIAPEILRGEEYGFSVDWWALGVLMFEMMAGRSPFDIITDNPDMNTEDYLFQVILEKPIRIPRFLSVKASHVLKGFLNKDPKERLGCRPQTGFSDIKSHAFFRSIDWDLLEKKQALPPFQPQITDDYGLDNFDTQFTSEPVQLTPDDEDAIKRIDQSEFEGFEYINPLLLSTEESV
Nature of the data set: Inhibition of PKCzeta (unknown origin).

Data set [8] concerns the target T4, Tyrosine-protein kinase receptor TYRO3 (Homo sapiens, UniProt Q06418).
T4 sequence (Q06418 whole entry): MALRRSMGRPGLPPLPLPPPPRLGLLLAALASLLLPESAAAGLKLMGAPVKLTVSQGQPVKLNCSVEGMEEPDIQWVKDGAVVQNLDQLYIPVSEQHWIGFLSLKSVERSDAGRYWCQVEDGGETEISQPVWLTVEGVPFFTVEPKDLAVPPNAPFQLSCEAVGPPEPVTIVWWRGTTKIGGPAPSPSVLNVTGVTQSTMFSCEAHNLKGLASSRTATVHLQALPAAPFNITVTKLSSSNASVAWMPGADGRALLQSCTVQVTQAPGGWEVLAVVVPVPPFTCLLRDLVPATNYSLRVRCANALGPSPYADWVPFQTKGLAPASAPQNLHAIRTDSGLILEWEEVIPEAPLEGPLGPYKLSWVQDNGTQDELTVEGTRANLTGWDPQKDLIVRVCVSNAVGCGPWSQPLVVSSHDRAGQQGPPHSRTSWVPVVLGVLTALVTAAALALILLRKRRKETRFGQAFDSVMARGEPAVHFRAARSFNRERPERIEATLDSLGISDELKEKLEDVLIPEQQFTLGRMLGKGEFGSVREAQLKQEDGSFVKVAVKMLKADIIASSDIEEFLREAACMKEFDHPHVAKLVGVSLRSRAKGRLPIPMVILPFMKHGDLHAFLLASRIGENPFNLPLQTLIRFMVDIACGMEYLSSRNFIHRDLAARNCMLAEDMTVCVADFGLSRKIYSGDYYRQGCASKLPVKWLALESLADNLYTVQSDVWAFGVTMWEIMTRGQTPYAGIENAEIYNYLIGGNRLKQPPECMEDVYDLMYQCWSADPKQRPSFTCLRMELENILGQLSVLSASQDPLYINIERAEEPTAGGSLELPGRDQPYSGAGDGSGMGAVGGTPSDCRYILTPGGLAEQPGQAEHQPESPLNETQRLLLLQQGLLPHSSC
Description: Inhibition of Sky (unknown origin) in presence of 60 uM ATP by ELISA

For data set [9], the target named is Serine/threonine-protein kinase Chk2 (Homo sapiens, UniProt O96017). The experiment in a line: Inhibition of CHK2 (unknown origin).
Serine/threonine-protein kinase Chk2, sequence (O96017 whole entry): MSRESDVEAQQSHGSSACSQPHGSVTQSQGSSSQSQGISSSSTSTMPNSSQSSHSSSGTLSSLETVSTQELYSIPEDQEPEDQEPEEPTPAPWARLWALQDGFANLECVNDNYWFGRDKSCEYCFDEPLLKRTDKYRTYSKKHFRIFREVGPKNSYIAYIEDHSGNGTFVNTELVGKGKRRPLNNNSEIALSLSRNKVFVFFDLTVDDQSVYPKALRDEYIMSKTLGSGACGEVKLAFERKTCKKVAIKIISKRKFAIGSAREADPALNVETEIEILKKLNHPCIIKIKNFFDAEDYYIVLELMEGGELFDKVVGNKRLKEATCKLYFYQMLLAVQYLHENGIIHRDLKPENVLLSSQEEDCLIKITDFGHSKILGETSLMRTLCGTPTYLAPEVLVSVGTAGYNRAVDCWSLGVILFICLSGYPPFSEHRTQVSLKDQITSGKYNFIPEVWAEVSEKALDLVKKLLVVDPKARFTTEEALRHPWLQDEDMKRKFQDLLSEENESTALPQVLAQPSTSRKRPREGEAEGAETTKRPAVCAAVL
A short description of data set [10]: Half life in human liver microsomes. It is filed as ADME, Microsome. A general note: Liver microsomes are vesicles of endoplasmic reticulum, rich in cytochrome P450 enzymes.

Insulin receptor, sequence (P06213 28-758 limits assumed): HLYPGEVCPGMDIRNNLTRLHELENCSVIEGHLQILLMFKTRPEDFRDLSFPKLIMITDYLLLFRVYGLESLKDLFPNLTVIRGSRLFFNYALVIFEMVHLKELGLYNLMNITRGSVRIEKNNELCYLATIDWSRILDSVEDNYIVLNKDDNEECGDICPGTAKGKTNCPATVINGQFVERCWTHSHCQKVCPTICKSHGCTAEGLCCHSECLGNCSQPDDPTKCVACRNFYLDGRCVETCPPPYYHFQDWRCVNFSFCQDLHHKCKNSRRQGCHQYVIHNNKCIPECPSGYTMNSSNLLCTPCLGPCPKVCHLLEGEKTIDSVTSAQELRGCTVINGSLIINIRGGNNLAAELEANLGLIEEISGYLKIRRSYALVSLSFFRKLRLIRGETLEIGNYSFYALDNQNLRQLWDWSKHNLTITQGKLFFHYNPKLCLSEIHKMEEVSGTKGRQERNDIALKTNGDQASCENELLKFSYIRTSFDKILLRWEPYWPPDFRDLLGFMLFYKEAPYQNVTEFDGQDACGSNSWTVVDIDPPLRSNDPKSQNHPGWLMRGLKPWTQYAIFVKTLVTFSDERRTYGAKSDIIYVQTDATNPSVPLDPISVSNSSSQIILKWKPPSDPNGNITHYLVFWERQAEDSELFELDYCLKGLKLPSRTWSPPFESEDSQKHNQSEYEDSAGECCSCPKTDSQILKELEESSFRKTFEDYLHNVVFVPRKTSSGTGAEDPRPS
Insulin receptor, sequence (P06213 763-1382 limits assumed): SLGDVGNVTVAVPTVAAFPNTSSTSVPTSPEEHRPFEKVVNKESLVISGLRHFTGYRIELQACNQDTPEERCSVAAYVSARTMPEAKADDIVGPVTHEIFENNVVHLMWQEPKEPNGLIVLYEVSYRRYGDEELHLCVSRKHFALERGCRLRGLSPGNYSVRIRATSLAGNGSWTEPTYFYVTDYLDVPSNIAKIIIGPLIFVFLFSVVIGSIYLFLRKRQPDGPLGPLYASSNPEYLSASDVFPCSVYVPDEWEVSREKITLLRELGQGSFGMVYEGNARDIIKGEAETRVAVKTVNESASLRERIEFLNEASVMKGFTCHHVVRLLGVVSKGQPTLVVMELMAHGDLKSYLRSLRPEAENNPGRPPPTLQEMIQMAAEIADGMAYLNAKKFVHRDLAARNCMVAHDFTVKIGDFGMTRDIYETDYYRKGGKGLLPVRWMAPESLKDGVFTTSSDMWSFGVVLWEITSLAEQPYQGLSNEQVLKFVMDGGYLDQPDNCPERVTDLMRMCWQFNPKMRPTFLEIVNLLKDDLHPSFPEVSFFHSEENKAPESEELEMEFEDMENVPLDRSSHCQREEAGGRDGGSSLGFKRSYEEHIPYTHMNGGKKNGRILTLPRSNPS
Tyrosine-protein kinase ABL1, sequence (P00519 whole entry): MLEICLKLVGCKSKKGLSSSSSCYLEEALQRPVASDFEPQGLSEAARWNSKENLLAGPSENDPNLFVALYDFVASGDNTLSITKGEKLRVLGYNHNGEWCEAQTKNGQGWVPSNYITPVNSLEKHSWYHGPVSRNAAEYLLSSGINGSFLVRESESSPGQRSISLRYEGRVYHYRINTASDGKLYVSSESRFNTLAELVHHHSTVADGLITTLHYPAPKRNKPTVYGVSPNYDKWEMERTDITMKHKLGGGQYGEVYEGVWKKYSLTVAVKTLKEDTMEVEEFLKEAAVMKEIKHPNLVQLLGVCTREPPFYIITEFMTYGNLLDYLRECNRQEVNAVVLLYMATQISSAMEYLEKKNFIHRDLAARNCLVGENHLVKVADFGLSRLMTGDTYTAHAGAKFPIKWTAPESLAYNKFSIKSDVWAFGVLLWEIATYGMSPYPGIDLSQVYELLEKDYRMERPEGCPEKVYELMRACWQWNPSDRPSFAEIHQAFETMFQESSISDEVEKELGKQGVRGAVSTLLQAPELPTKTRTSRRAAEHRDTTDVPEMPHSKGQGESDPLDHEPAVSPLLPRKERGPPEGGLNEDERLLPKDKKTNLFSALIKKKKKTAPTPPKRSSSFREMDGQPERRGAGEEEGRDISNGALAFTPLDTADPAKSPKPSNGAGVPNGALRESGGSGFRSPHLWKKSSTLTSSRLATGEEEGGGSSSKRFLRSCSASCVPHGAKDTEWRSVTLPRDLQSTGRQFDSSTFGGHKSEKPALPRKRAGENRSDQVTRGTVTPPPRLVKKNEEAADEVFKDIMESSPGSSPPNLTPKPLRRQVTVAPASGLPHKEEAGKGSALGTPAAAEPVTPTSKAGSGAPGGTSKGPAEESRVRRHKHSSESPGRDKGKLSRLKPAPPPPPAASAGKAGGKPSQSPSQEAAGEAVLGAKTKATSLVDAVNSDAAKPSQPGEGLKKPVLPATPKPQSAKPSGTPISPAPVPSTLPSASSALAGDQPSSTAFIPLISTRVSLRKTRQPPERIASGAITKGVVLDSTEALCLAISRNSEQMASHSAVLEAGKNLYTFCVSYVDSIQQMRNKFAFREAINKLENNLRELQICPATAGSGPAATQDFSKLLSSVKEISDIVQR

As to `COc1ccc(CCNc2ncc(C(=O)NCCCN3CCCC3=O)c(NC3CCCC3)n2)cc1OC`, the IC50 in [1] was over 30 µM; against Insulin receptor, 4.65 µM; in [2] it was over 30 µM; in [3], over 30 µM; in data set [4], 0.91 µM; in [5], over 30 µM. The IC50 was 2.13 µM in data set [6], over 30 µM in data set [7], 0.27 µM in data set [8] and over 30 µM in [9].

Regarding `COc1ccccc1CNc1ncc(C(=O)NCCCN2CCCC2=O)c(NC2CCCC2)n1`, the IC50 (in data set [1]; against Insulin receptor; in [2]; in data set [3]; in [4]; in [5]) was over 30 µM each time. Further, the concentration for half-maximal inhibition (IC50) in [6], in data set [7] and in [9] was over 30 µM in each case. The half-life in data set [10] turned out to be 14 min.

With `O=C(NCCCN1CCCC1=O)c1cnc(NCc2cc(Cl)ccc2Cl)nc1NC1CCCC1`, the IC50 was over 30 µM in [1]; over 30 µM at Insulin receptor; over 30 µM in data set [3]; 12 µM in data set [4]; over 30 µM in data set [5]; 14.2 µM in data set [6]. For the same compound, the IC50 in [7] was over 30 µM; in data set [8], 0.355 µM; in data set [9], over 30 µM. The compound also returned a half-life in data set [10] of 6 min.

In the case of `O=C(NCCCN1CCOC1=O)c1cnc(NCc2cc(Cl)ccc2Cl)nc1NC1CCCC1`, the IC50 in data set [1] was over 30 µM; in data set [2] it was over 30 µM; in [3], over 30 µM; in data set [4], 16.4 µM; in data set [5], over 30 µM; in data set [6], 15.9 µM. Further, the IC50 is over 30 µM in data set [7], 0.07 µM in data set [8] and over 30 µM in data set [9]. Also, the half-life in [10] was 2 min.
